In patent publication US8093252B2, “Crystalline polymorphic form of glucokinase activator” (AstraZeneca AB, priority 2009, dated 2012):

Key:
[1] = relative stability of the crystalline forms of the compound; assay type: physicochemical; conditions: crystalline form prepared from isopropyl alcohol (IPA)
[2] = dihydrate from slurry of the compound in water, disclosed in WO 2007/007041; cited from earlier work

stability of crystalline form relative to the other forms [1]	Compound	stability of crystalline form in the presence of water [2]
more stable	COC[C@H](C)Oc1cc(Oc2cnc(C(=O)N3CCC3)cn2)cc(C(=O)Nc2cnc(C)cn2)c1 [Form 6, 3-{[5-(azetidin-1-ylcarbonyl)pyrazin-2-yl]oxy}-5-{[(1S)-1-methyl-2-(methyloxy)ethyl]oxy}-N-(5-methylpyrazin-2-yl)benzamide]	–
–	COC[C@H](C)Oc1cc(Oc2cnc(C(=O)N3CCC3)cn2)cc(C(=O)Nc2cnc(C)cn2)c1 [Form 3, 3-{[5-(azetidin-1-ylcarbonyl)pyrazin-2-yl]oxy}-5-{[(1S)-1-methyl-2-(methyloxy)ethyl]oxy}-N-(5-methylpyrazin-2-yl)benzamide]	most stable
